Laboratory results published in ChEMBL document CHEMBL4020767, “Structural insight into the active site of mushroom tyrosinase using phenylbenzoic acid derivatives” (Bioorg Med Chem Lett, 2017).

The compounds below were run against Mushroom tyrosinase (Agaricus bisporus, UniProt O42713+Q00024+C7FF04+C7FF05) (assay: Inhibition of mushroom tyrosinase […] measured at 60 secs interval for 25 times).

IC50 [µM] | SMILES
63.24 | O=C(O)c1ccc(-c2ccccc2)cc1
15.3 | COc1ccc(-c2ccc(C(=O)O)cc2)cc1
6.97 | O=C(O)c1cccc(-c2ccccc2)c1
> 100 | O=C(O)c1ccccc1-c1ccccc1
15.3 | COc1ccc(-c2cccc(C(=O)O)c2)cc1
100.18 | O=C(O)c1ccccc1-c1ccc(O)cc1
10.59 | O=C(O)c1cccc(-c2ccc(O)cc2)c1
> 100 | COc1ccc(-c2ccccc2C(=O)O)cc1
14.7 | O=C(O)c1ccc(-c2ccc(O)cc2)cc1
